Earlier results as cited in patent publication US10064856B2, “Pharmaceutical compositions” (LOCL PHARMA, INC., priority 2008, dated 2018).

Conditions: more than about 0.6 to 2.0 gm, typically more than about 0.6 gm

O=S(=O)([O-])[O-].[Zn+2] [Zinc sulfate, zinc sulfate]
amount ingested that can induce emesis: more than 0.6 gm
